The values that follow come from PMC7190597, “Characterisation of four hotdog-fold thioesterases for their implementation in a novel organic acid production system” (Applied Microbiology and Biotechnology, 2020).

Structures are written as SMILES.

The target of one assay is T1, YbdB (Escherichia coli, UniProt P0A8Y8).
T1 construct: gene entH; full-length in pET29a, expressed in E. coli BL21(DE3), clarified lysate
T1 sequence (P0A8Y8 1-137): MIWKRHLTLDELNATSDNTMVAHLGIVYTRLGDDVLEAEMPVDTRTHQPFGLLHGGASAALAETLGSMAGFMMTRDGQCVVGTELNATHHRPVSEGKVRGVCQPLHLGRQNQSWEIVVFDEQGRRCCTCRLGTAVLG
The assay is described as follows: DTNB assay on clarified lysate, empty-vector lysate control. The format is biochemical. The settings on record: 0.2 mM substrate, 100 mM triethanolamine pH 8, 25 °C, 0.4 mM DTNB.

In a further assay the target is T2, PA2801 (Pseudomonas aeruginosa, UniProt Q9I042).
T2 construct: full-length in pET29a, expressed in E. coli BL21(DE3), clarified lysate
T2 sequence (Q9I042 1-134): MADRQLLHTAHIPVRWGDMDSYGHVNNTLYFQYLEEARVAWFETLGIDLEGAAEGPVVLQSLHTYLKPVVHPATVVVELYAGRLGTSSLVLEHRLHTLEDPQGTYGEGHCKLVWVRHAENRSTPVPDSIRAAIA
The description is as above. The format is biochemical. As to conditions: 0.2 mM substrate, 100 mM triethanolamine pH 8, 25 °C, 0.4 mM DTNB.

Take `CCCCCCCCCCCCCCCCC(=O)SCCNC(=O)CCNC(=O)[C@H](O)C(C)(C)COP(=O)(O)OP(=O)(O)OC[C@H]1O[C@@H](n2cnc3c(N)ncnc32)[C@H](O)[C@@H]1OP(=O)(O)O` [nHD CoA, n-heptadecanoyl CoA]: on YbdB, the “DTNB assay on clarified lysate, empty-vector lysate control” value (“DTNB assay on clarified lysate” for short) is “YbdB was found to only have activity towards Bz CoA and nHD CoA”.
On to `CC(O)CC(=O)SCCNC(=O)CCNC(=O)[C@H](O)C(C)(C)COP(=O)(O)OP(=O)(O)OC[C@H]1O[C@@H](n2cnc3c(N)ncnc32)[C@H](O)[C@@H]1OP(=O)(O)O` (mixture of isomers) [DLBH CoA, DL-β-hydroxybutyryl CoA], for which the “DTNB assay on clarified lysate” value at PA2801 is recorded as “PA2801 was found to have activity towards the aliphatic CoA esters: DLBH CoA”.
On to `CC(C)(COP(=O)(O)OP(=O)(O)OC[C@H]1O[C@@H](n2cnc3c(N)ncnc32)[C@H](O)[C@@H]1OP(=O)(O)O)[C@@H](O)C(=O)NCCC(=O)NCCSC(=O)c1ccccc1` [Bz CoA, Benzoyl CoA], for which, at YbdB, the “DTNB assay on clarified lysate” value is “YbdB was found to only have activity towards Bz CoA and nHD CoA”.
For the compound `CC(C)(COP(=O)(O)OP(=O)(O)OC[C@H]1O[C@@H](n2cnc3c(N)ncnc32)[C@H](O)[C@@H]1OP(=O)(O)O)[C@@H](O)C(=O)NCCC(=O)NCCSC(=O)C1CCCCC1` [CHC CoA, cyclohexanecarboxylic acid coenzyme A], on PA2801, the “DTNB assay on clarified lysate” value was “despite activity being found with CHC CoA, no activity was found with CHC-NAC”.
